Data reported in PubChem BioAssay (NCI).
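1) Cells in 96-well plates. 2) Compound, 48 h, 5 concentrations. 3) Linear interpolation between surrounding doses. 4) Unreached endpoint = highest concentration. At the GI50, growth is halved. The concentration for full growth arrest is given as TGI.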

Legend:
Assay in all cases: inhibition of tumour cell growth, NCI panel, 48 h
SK-MEL-28 melanoma = system: SK-MEL-28 melanoma
ACHN renal = system: ACHN renal
RPMI-8226 leukemia = system: RPMI-8226 leukemia
MOLT-4 leukemia = system: MOLT-4 leukemia
OVCAR-8 ovarian = system: OVCAR-8 ovarian
NCI-H460 lung = system: NCI-H460 lung
HCT-116 colon = system: HCT-116 colon
M14 melanoma = system: M14 melanoma
U251 CNS = system: U251 CNS
NCI-H23 lung = system: NCI-H23 lung
RXF 393 renal = system: RXF 393 renal
SK-MEL-5 melanoma = system: SK-MEL-5 melanoma
T-47D breast = system: T-47D breast
SK-MEL-2 melanoma = system: SK-MEL-2 melanoma
OVCAR-3 ovarian = system: OVCAR-3 ovarian
MDA-MB-435 = system: MDA-MB-435
UACC-62 melanoma = system: UACC-62 melanoma
SW-620 colon = system: SW-620 colon
COLO 205 colon = system: COLO 205 colon
786-0 renal = system: 786-0 renal
HOP-62 NSCLC = system: HOP-62 NSCLC
OVCAR-4 ovarian = system: OVCAR-4 ovarian
LOX IMVI melanoma = system: LOX IMVI melanoma
OVCAR-5 ovarian = system: OVCAR-5 ovarian
KM12 colon = system: KM12 colon
NCI-H226 lung = system: NCI-H226 lung
HCT-15 colon = system: HCT-15 colon
SN12C renal = system: SN12C renal
MALME-3M melanoma = system: MALME-3M melanoma
CCRF-CEM leukemia = system: CCRF-CEM leukemia
UACC-257 melanoma = system: UACC-257 melanoma
MDA-MB-231 breast = system: MDA-MB-231 breast
HT29 colon = system: HT29 colon
BT-549 breast = system: BT-549 breast
UO-31 renal = system: UO-31 renal
IGROV1 ovarian = system: IGROV1 ovarian
HS 578T breast = system: HS 578T breast
TK-10 renal = system: TK-10 renal
A549 NSCLC = system: A549 NSCLC
SF-295 CNS = system: SF-295 CNS
SF-539 CNS = system: SF-539 CNS
NCI/ADR-RES ovarian = system: NCI/ADR-RES ovarian
CAKI-1 renal = system: CAKI-1 renal
HL-60(TB) leukemia = system: HL-60(TB) leukemia
K-562 leukemia = system: K-562 leukemia
HCC-2998 colon = system: HCC-2998 colon
SNB-75 CNS = system: SNB-75 CNS
A498 renal = system: A498 renal
SF-268 CNS = system: SF-268 CNS
SNB-19 CNS = system: SNB-19 CNS
MCF7 breast = system: MCF7 breast
EKVX NSCLC = system: EKVX NSCLC
SK-OV-3 ovarian = system: SK-OV-3 ovarian
PC-3 prostate = system: PC-3 prostate

SMILES: O=C(CSc1ccc(Cl)cc1)Nc1ccc(-c2nc3ccccc3s2)c(Cl)c1
- GI50 (SK-MEL-28 melanoma): 6.31 µM
- TGI (SK-MEL-28 melanoma): 46.4 µM
- GI50 (ACHN renal): 4.09 µM
- TGI (ACHN renal): 36.9 µM
- GI50 (RPMI-8226 leukemia): 2.66 µM
- TGI (RPMI-8226 leukemia): > 100 µM
- GI50 (MOLT-4 leukemia): 4.37 µM
- TGI (MOLT-4 leukemia): > 100 µM
- GI50 (OVCAR-8 ovarian): 5.09 µM
- TGI (OVCAR-8 ovarian): > 100 µM
- GI50 (NCI-H460 lung): 3.41 µM
- TGI (NCI-H460 lung): 16 µM
- GI50 (HCT-116 colon): 2.08 µM
- TGI (HCT-116 colon): 5.45 µM
- GI50 (M14 melanoma): 4.87 µM
- TGI (M14 melanoma): 33.8 µM
- GI50 (U251 CNS): 3.71 µM
- TGI (U251 CNS): 18.7 µM
- GI50 (NCI-H23 lung): 2.23 µM
- TGI (NCI-H23 lung): 5.56 µM
- GI50 (RXF 393 renal): 14.1 µM
- TGI (RXF 393 renal): 55.8 µM
- GI50 (SK-MEL-5 melanoma): 10.4 µM
- TGI (SK-MEL-5 melanoma): 23 µM
- GI50 (T-47D breast): 2.54 µM
- TGI (T-47D breast): 8.63 µM
- GI50 (SK-MEL-2 melanoma): 3.82 µM
- TGI (SK-MEL-2 melanoma): 15.7 µM
- GI50 (OVCAR-3 ovarian): 2.43 µM
- TGI (OVCAR-3 ovarian): 8.01 µM
- GI50 (MDA-MB-435): 3.72 µM
- TGI (MDA-MB-435): 35.4 µM
- GI50 (UACC-62 melanoma): 2.77 µM
- TGI (UACC-62 melanoma): 15.1 µM
- GI50 (SW-620 colon): 3.67 µM
- TGI (SW-620 colon): 83.4 µM
- GI50 (COLO 205 colon): 2.88 µM
- TGI (COLO 205 colon): 9.24 µM
- GI50 (786-0 renal): 3.94 µM
- TGI (786-0 renal): 24.7 µM
- GI50 (HOP-62 NSCLC): 5.91 µM
- TGI (HOP-62 NSCLC): 24.8 µM
- GI50 (OVCAR-4 ovarian): 5.95 µM
- TGI (OVCAR-4 ovarian): > 100 µM
- GI50 (LOX IMVI melanoma): 5.07 µM
- TGI (LOX IMVI melanoma): > 100 µM
- GI50 (OVCAR-5 ovarian): 11.6 µM
- TGI (OVCAR-5 ovarian): 55.4 µM
- GI50 (KM12 colon): 3.66 µM
- TGI (KM12 colon): > 100 µM
- GI50 (NCI-H226 lung): 4.9 µM
- TGI (NCI-H226 lung): 64.1 µM
- GI50 (HCT-15 colon): 3.62 µM
- TGI (HCT-15 colon): > 100 µM
- GI50 (SN12C renal): 3.57 µM
- TGI (SN12C renal): 72.8 µM
- GI50 (MALME-3M melanoma): 4.77 µM
- TGI (MALME-3M melanoma): 36.2 µM
- GI50 (CCRF-CEM leukemia): 3.58 µM
- TGI (CCRF-CEM leukemia): > 100 µM
- GI50 (UACC-257 melanoma): 15.7 µM
- TGI (UACC-257 melanoma): > 100 µM
- GI50 (MDA-MB-231 breast): 8.34 µM
- TGI (MDA-MB-231 breast): 23.6 µM
- GI50 (HT29 colon): 6.86 µM
- TGI (HT29 colon): > 100 µM
- GI50 (BT-549 breast): 2.76 µM
- TGI (BT-549 breast): 8.53 µM
- GI50 (UO-31 renal): 2.29 µM
- TGI (UO-31 renal): 22.9 µM
- GI50 (IGROV1 ovarian): 0.744 µM
- TGI (IGROV1 ovarian): 75.8 µM
- GI50 (HS 578T breast): 2.56 µM
- TGI (HS 578T breast): 7.99 µM
- GI50 (TK-10 renal): 5.3 µM
- TGI (TK-10 renal): 40 µM
- GI50 (A549 NSCLC): 5.84 µM
- TGI (A549 NSCLC): > 100 µM
- GI50 (SF-295 CNS): 2 µM
- TGI (SF-295 CNS): 5.42 µM
- GI50 (SF-539 CNS): 14.5 µM
- TGI (SF-539 CNS): 32.7 µM
- GI50 (NCI/ADR-RES ovarian): 4.39 µM
- TGI (NCI/ADR-RES ovarian): 32.6 µM
- GI50 (CAKI-1 renal): 2.53 µM
- TGI (CAKI-1 renal): 10.3 µM
- GI50 (HL-60(TB) leukemia): 13.4 µM
- TGI (HL-60(TB) leukemia): > 100 µM
- GI50 (K-562 leukemia): 4.14 µM
- TGI (K-562 leukemia): > 100 µM
- GI50 (HCC-2998 colon): 3.09 µM
- TGI (HCC-2998 colon): 16.3 µM
- GI50 (SNB-75 CNS): 29.1 µM
- TGI (SNB-75 CNS): > 100 µM
- GI50 (A498 renal): 1.98 µM
- TGI (A498 renal): 6.34 µM
- GI50 (SF-268 CNS): 3.24 µM
- TGI (SF-268 CNS): 22.4 µM
- GI50 (SNB-19 CNS): 4.31 µM
- TGI (SNB-19 CNS): 74.2 µM
- GI50 (MCF7 breast): 4.67 µM
- TGI (MCF7 breast): 39.2 µM
- GI50 (EKVX NSCLC): 4.1 µM
- TGI (EKVX NSCLC): 40.3 µM
- GI50 (SK-OV-3 ovarian): 13.7 µM
- TGI (SK-OV-3 ovarian): 44.1 µM
- GI50 (PC-3 prostate): 2.42 µM
- TGI (PC-3 prostate): 8.23 µM
